Assays:
Test in all cases: selective drug sensitivity score (sDSS, relative to normal bone marrow) (sDSS (score)); higher = more potent and effective on the cell line relative to normal bone marrow cells
Conditions in all cases: 72 h
TANOUE = system: TANOUE
HPB-ALL = system: HPB-ALL
LC4-1 = system: LC4-1
MHH-CALL-2 = system: MHH-CALL-2
697 = system: 697
TMD5 = system: TMD5
DND-41 = system: DND-41
NALM-16 = system: NALM-16
NALL-1 = system: NALL-1
KASUMI-2 = system: KASUMI-2
P30-OHKUBO = system: P30-OHKUBO
SUP-B15 = system: SUP-B15
COG-LL-355h = system: COG-LL-355h
COG-LL-319h = system: COG-LL-319h
380 = system: 380
ALL-SIL = system: ALL-SIL
REH = system: REH
MHH-CALL-3 = system: MHH-CALL-3
MOLT-16 = system: MOLT-16
JURKAT = system: JURKAT
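Also: ALL cell lines in 384-well plates, five doses spanning 10,000-fold, each plate scaled between vehicle and 100 µmol/L benzalkonium chloride controls, sDSS an adapted area-under-curve metric.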

| Structure (SMILES) | selective drug sensitivity score (TANOUE) | selective drug sensitivity score (HPB-ALL) | selective drug sensitivity score (LC4-1) | selective drug sensitivity score (MHH-CALL-2) | selective drug sensitivity score 697 | selective drug sensitivity score (TMD5) | selective drug sensitivity score (DND-41) | selective drug sensitivity score (NALM-16) | selective drug sensitivity score (NALL-1) | selective drug sensitivity score (KASUMI-2) | selective drug sensitivity score (P30-OHKUBO) | selective drug sensitivity score (SUP-B15) | selective drug sensitivity score (COG-LL-355h) | selective drug sensitivity score (COG-LL-319h) | selective drug sensitivity score 380 | selective drug sensitivity score (ALL-SIL) | selective drug sensitivity score (REH) | selective drug sensitivity score (MHH-CALL-3) | selective drug sensitivity score (MOLT-16) | selective drug sensitivity score (JURKAT) |
| --- | --- | --- | --- | --- | --- | --- | --- | --- | --- | --- | --- | --- | --- | --- | --- | --- | --- | --- | --- | --- |
| C[C@@H]1COCCN1c1cc(C2([S@](C)(=N)=O)CC2)nc(-c2cc[nH]c3nccc2-3)n1 [AZD6738] (top concentration 25000 nM) | -6.12 | 7.38 | 8.48 | 13.2 | 11 | 5.88 | 8.58 | 0.68 | 7.68 | 1.38 | 5.78 | 9.68 | 6.18 | 15.6 | 19.5 | 8.88 | 13.1 | 12.2 | 13 | 3.88 |
| NC1(C(=O)N[C@@H](CCO)c2ccc(Cl)cc2)CCN(c2ncnc3[nH]ccc23)CC1 [AZD-5363] (top concentration 10000 nM) | -2.88 | 1.82 | 1.22 | 7.82 | 5.32 | 6.62 | -1.88 | 0.12 | 4.72 | 7.32 | 5.22 | 0.42 | 5.92 | 4.72 | 8.82 | 3.52 | 11.3 | 6.72 | 13.3 | 6.72 |
| C[C@@H](Nc1cc(F)cc(F)c1)c1cc(C(=O)N(C)C)cc2c(=O)cc(N3CCOCC3)oc12 [AZD-8186] (top concentration 1000 nM) | -0.26 | 1.94 | -0.26 | 4.64 | 3.64 | -0.26 | -0.26 | -0.06 | 2.34 | 7.54 | 7.24 | -0.26 | 5.04 | 0.74 | 2.84 | -0.26 | 9.54 | 3.84 | -0.26 | -0.26 |
| COc1cccc2c1C(=O)c1c(O)c3c(c(O)c1C2=O)C[C@@](O)(/C(CO)=N/NC(=O)CCCCCN1C(=O)C=CC1=O)C[C@@H]3O[C@H]1C[C@H](N)[C@H](O)[C@H](C)O1 [Aldoxorubicin] (top concentration 1000 nM) | -7.76 | 1.04 | 6.34 | 9.84 | 10.2 | 0.34 | 1.84 | -0.46 | -1.86 | 8.54 | 7.34 | 12.5 | 4.44 | 14 | 13.2 | 0.74 | 12.1 | 14.1 | 16.6 | 1.64 |
| COc1cc(Nc2ncc3c(n2)-c2ccc(Cl)cc2C(c2c(F)cccc2OC)=NC3)ccc1C(=O)O [Alisertib] (top concentration 10000 nM) | -5.62 | 14.3 | 25.5 | 14.9 | 25 | 11 | 0.88 | 0.28 | 16.2 | 18.5 | 25.4 | 24 | 7.98 | 23.3 | 26.4 | 17.2 | 14.4 | 12 | 29.6 | 11.3 |
| Cc1nc(NC(=O)N2CCC[C@H]2C(N)=O)sc1-c1ccnc(C(C)(C)C(F)(F)F)c1 [Alpelisib] (top concentration 2500 nM) | -0.82 | 2.88 | 0.98 | 1.68 | 1.08 | -0.82 | -0.82 | 1.38 | -0.82 | 1.98 | 2.78 | -0.82 | 5.98 | 12.5 | 3.18 | 6.28 | -0.12 | -0.82 | -0.72 | -0.82 |
| CCN(CC)CCNC(=O)c1c(C)[nH]c(/C=C2\C(=O)Nc3ccc(-c4csc(-c5ccccc5)n4)cc32)c1C [Amcasertib] (top concentration 10000 nM) | -2.6 | 4.3 | 0.9 | 4.9 | 2.4 | -1.7 | 6.8 | -2.1 | 5.2 | 0.8 | 3.9 | 0.5 | 6.8 | -0.1 | 7.8 | 3.6 | 3.6 | -3.2 | 3.5 | -2.2 |
| COc1c(C)cnc(Cn2cnc3c(Cl)nc(N)nc32)c1C [BIIB021] (top concentration 10000 nM) | -8.12 | 3.58 | 0.98 | 2.48 | 4.28 | 1.58 | 8.58 | 2.38 | 1.08 | 3.88 | 3.38 | 4.48 | 0.38 | 1.78 | 7.68 | 5.88 | 5.68 | 9.58 | 12.7 | 0.48 |
| O=C(/C=C/c1cccc(S(=O)(=O)Nc2ccccc2)c1)NO [Belinostat] (top concentration 10000 nM) | -4.5 | 8.4 | 9.7 | 11 | 10.1 | 6.3 | 7.2 | 2.5 | 2.4 | 17.4 | 8 | 8.5 | 10.2 | 11.8 | 16.2 | 8.9 | 5.1 | 17.5 | 10.1 | 7.6 |
| Nc1cc(C(F)(F)F)c(-c2cc(N3CCOCC3)nc(N3CCOCC3)n2)cn1 [Buparlisib] (top concentration 10000 nM) | -1.22 | 6.38 | 6.08 | 5.28 | 7.38 | -1.82 | -0.32 | 3.98 | 1.28 | 2.08 | 7.28 | 4.38 | 5.68 | 4.58 | 7.18 | 8.28 | 5.18 | -1.22 | 4.08 | 8.18 |
| CCS(=O)(=O)N1CCN(c2ccc(Nc3ncc(C(N)=O)c(NC4CC4)n3)cc2)CC1 [Cerdulatinib] (top concentration 10000 nM) | -10.1 | -11.9 | -9.46 | -8.26 | -3.66 | -4.46 | 2.54 | -11.4 | -8.76 | -11.9 | 3.44 | 0.04 | -7.46 | 2.14 | -11.9 | -0.76 | -5.16 | -11.9 | -2.36 | -8.66 |
| CC(C)[C@H]1C(=O)N[C@@H](CCCNC(=N)N)C(=O)NCC(=O)N[C@@H](CC(=O)O)C(=O)N[C@H](Cc2ccccc2)C(=O)N1C [Cilengitide] (top concentration 10000 nM) | 0 | 0 | 0 | 7.1 | 0 | 7.5 | 0 | 0 | 11.8 | 0 | 4.2 | 0 | 0 | 0 | 11.3 | 0 | 0 | 0 | 0 | 0 |
| CC(C)(C)c1nc(-c2cccc(NS(=O)(=O)c3c(F)cccc3F)c2F)c(-c2ccnc(N)n2)s1 [Dabrafenib] (top concentration 2500 nM) | 0.48 | 2.98 | 6.48 | 9.18 | 11.5 | 1.18 | -1.52 | -1.52 | -1.42 | -1.52 | 5.18 | 1.88 | 0.38 | -0.92 | -1.52 | 3.48 | -1.52 | -1.52 | 4.68 | 1.08 |
| C[C@H]1O[C@@H](O[C@H]2[C@@H](O)C[C@H](O[C@H]3[C@@H](O)C[C@H](O[C@H]4CC[C@@]5(C)[C@H](CC[C@@H]6[C@@H]5C[C@@H](O)[C@]5(C)[C@@H](C7=CC(=O)OC7)CC[C@]65O)C4)O[C@@H]3C)O[C@@H]2C)C[C@H](O)[C@@H]1O [Digoxin] (top concentration 1000 nM) | -2.9 | 5.5 | 7.8 | 11.9 | 8.6 | 6.9 | 2.4 | 4.9 | 6.3 | 5.9 | 9.1 | 9.2 | 8.7 | 10.3 | 22.5 | 5.6 | 6.3 | 10.5 | 12 | 10 |
| C[C@H](Nc1ncnc2nc[nH]c12)c1cc2cccc(Cl)c2c(=O)n1-c1ccccc1 [Duvelisib] (top concentration 500 nM) | -0.94 | -0.94 | -0.94 | -0.94 | 2.16 | -0.94 | -0.14 | -0.94 | -0.94 | 9.86 | 5.76 | 0.06 | 4.96 | 3.56 | 1.46 | -0.94 | -0.94 | -0.14 | 1.26 | -0.94 |
| NC(=O)/C(=C/n1cnc(-c2cc(C(F)(F)F)cc(C(F)(F)F)c2)n1)c1cncnc1 [Eltanexor] (top concentration 10000 nM) | -11.8 | 5.86 | 8.16 | 11.4 | 13.2 | -1.84 | 12.6 | -0.84 | 2.76 | 16.8 | 11.8 | 13.7 | 14.5 | 8.46 | 13.6 | 10.3 | 7.06 | 22.3 | 14.4 | 9.76 |
| COC(=O)N[C@@H](C)CNc1nccc(-c2cn(C(C)C)nc2-c2cc(Cl)cc(NS(C)(=O)=O)c2F)n1 [Encorafenib] (top concentration 1000 nM) | 0 | 1.1 | 2.9 | 1.7 | 8 | 0 | 0 | 0 | 0 | 0 | 1.3 | 0.9 | 1.4 | 0 | 0 | 0 | 1.6 | 0 | 1 | 1.7 |
| Nc1ccccc1NC(=O)c1ccc(CNC(=O)OCc2cccnc2)cc1 [Entinostat] (top concentration 10000 nM) | -8.52 | 4.28 | 4.48 | 8.98 | 8.28 | 5.38 | 1.28 | 0.28 | -0.82 | 7.68 | 5.68 | 7.08 | 1.98 | 12.7 | 13.1 | 12.1 | 2.68 | 11.4 | 6.58 | 2.68 |

Source: the supplement of paper PMC8967900
